Among the data in ChEMBL document CHEMBL1145073, “DNA binding ligands targeting drug-resistant bacteria: structure, activity, and pharmacology” (J Med Chem, 2003) are MIC and Kd values, retold here.

Values after ≈ are worked out from the molar mass of the structure shown. A value given as a limit tells only on which side of the number the result lay.

For one test, the system named is Staphylococcus aureus. As to the kind of experiment: In vitro antimicrobial activity against methicillin resistant Staphylococcus aureus 27660. The class given is functional.
The nature of test [1]: In vitro antimicrobial activity against penicillin-intermediate Streptococcus pneumoniae 49619. The class given is functional.
For test [2], the system named is Enterococcus faecalis. As to the kind of experiment: In vitro antimicrobial activity against vancomycin-susceptible Enterococcus faecalis 29212. The class given is functional.
A further test addresses Nucleic Acid. Kind of test: Apparent binding affinity against DNA (5'-ACAATTAA-3') was determined using DNase I footprinting titration method. The class given is nucleic-acid assay. Particulars: read-out: Kd app.
Test [3] can be described thus: In vitro antimicrobial activity against penicillin resistant Streptococcus pneumoniae 51422. The class given is functional.
For another test, the system named is Bacillus cereus. As to the kind of experiment: In vitro antimicrobial activity against Bacillus cereus 11778. The class given is functional.
The next test relates to Candida albicans. As to the kind of experiment: In vitro antimicrobial activity against Candida albicans 38247. The class given is functional. Particulars: Candida albicans; read-out: MIC.
The test system of test [4] is Enterococcus faecalis. As to the kind of experiment: In vitro antimicrobial activity against vancomycin-resistant Enterococcus faecalis 51559. The class given is functional.

As a reminder, the MIC is the lowest concentration found to suppress growth. `Cc1c(-c2cc(C(=O)Nc3cc(C(=O)Nc4cc(C(=O)NCCN5CCOCC5)n(C)c4)n(C)c3)n(C)c2)oc2ccccc12`: the MIC against Staphylococcus aureus stood at 8 µg/mL (≈ 13.1 µM); in test [1] it was 2 µg/mL (≈ 3.27 µM); in the test on Enterococcus faecalis [2], 16 µg/mL (≈ 26.2 µM).
In the same order, the values of `Cc1cccnc1-c1cc(C(=O)Nc2cc(C(=O)Nc3cc(C(=O)NCCN4CCOCC4)n(C)c3)n(C)c2)n(C)c1` are 18 µg/mL (≈ 31.4 µM), 1 µg/mL (≈ 1.75 µM) and 8 µg/mL (≈ 14 µM).
In the case of `Cn1cc(NC(=O)c2cc(NC(=O)c3cc(NC(=O)c4cc5ccccc5cn4)cn3C)cn2C)cc1C(=O)NCCN1CCCC1`, the MIC was 0.5 µg/mL (≈ 0.786 µM) in the test on Staphylococcus aureus, 0.062 µg/mL (≈ 0.0975 µM) in test [1] and 2 µg/mL (≈ 3.15 µM) against Enterococcus faecalis [2].
In the same order, the values of `Cn1cc(NC(=O)c2cc(NC(=O)c3cc(NC(=O)c4cc5ccccc5cn4)cn3C)cn2C)cc1C(=O)NCCCN1CCCCC1` are 4 µg/mL (≈ 6.03 µM), 0.25 µg/mL (≈ 0.377 µM) and 4 µg/mL (≈ 6.03 µM).
The matching figures for `Cn1cc(NC(=O)c2cc(NC(=O)c3cc(-c4sc(Cl)c(Cl)c4Cl)cn3C)cn2C)cc1C(=O)NCCN1CCOCC1`: 16 µg/mL (≈ 24 µM), 8 µg/mL (≈ 12 µM) and more than 32 µg/mL.
The matching figures for `CN(C)CCCNC(=O)c1cc(NC(=O)c2cc(NC(=O)c3cc(NC(=O)c4cc5ccccc5cn4)cn3C)cn2C)cn1C`: 4 µg/mL (≈ 6.41 µM), 1 µg/mL (≈ 1.6 µM) and 4 µg/mL (≈ 6.41 µM).
`Cn1cc(NC(=O)c2cc(NC(=O)c3cc(-c4ccc5nsnc5c4)cn3C)cn2C)cc1C(=O)NCCN1CCOCC1`: the MIC against Staphylococcus aureus turned out to be 8 µg/mL (≈ 13 µM); in test [1], 0.5 µg/mL (≈ 0.812 µM); in the test on Enterococcus faecalis [2] it was 1 µg/mL (≈ 1.62 µM).
In the same order, the values of `Cn1cc(NC(=O)c2cc(NC(=O)c3cc(-c4ccc(F)cc4F)cn3C)cn2C)cc1C(=O)NCCN1CCOCC1` are 2 µg/mL (≈ 3.37 µM), 0.125 µg/mL (≈ 0.211 µM) and 1 µg/mL (≈ 1.68 µM).
The matching figures for `Cn1cc(NC(=O)c2cc(NC(=O)c3cc(NC(=O)c4cc5ccccc5cn4)cn3C)cn2C)cc1C(=O)NCCN1CCCCC1`: 0.25 µg/mL (≈ 0.385 µM), 0.031 µg/mL (≈ 0.0477 µM) and 0.062 µg/mL (≈ 0.0954 µM).
Regarding `Cn1cc(NC(=O)c2cc(NC(=O)c3cc(-c4cc5ccccc5o4)cn3C)cn2C)cc1C(=O)NCCN1CCOCC1`, the MIC with Staphylococcus aureus was 2 µg/mL (≈ 3.35 µM); in test [1], 0.5 µg/mL (≈ 0.837 µM); in the test with Enterococcus faecalis [2], 4 µg/mL (≈ 6.69 µM).
The matching figures for `Cn1cc(NC(=O)c2cc(NC(=O)c3cc(-c4ccc5[nH]cnc5c4)cn3C)cn2C)cc1C(=O)NCCN1CCOCC1`: more than 32 µg/mL, more than 8 µg/mL and more than 32 µg/mL.
The matching figures for `Cn1cc(NC(=O)c2cc(NC(=O)c3cc(-c4cnc(O)c(Cl)c4)cn3C)cn2C)cc1C(=O)NCCN1CCOCC1`: 8 µg/mL (≈ 13.1 µM), 0.5 µg/mL (≈ 0.821 µM) and more than 32 µg/mL.
Regarding `Cn1cc(NC(=O)c2cc(NC(=O)c3cc(NC(=O)c4sccc4Cl)cn3C)cn2C)cc1C(=O)NCCCN1CCOCC1`, the minimum inhibitory concentration (MIC) in the test on Staphylococcus aureus was 8 µg/mL (≈ 12.2 µM); in test [3] it was 8 µg/mL (≈ 12.2 µM); in test [1], 2 µg/mL (≈ 3.05 µM); in the test on Enterococcus faecalis [2] it was 4 µg/mL (≈ 6.11 µM); against Bacillus cereus, 8 µg/mL (≈ 12.2 µM); in the test on Candida albicans, more than 32 µg/mL. The same compound yielded an MIC against Enterococcus faecalis [4] of 8 µg/mL (≈ 12.2 µM). In addition, the Kd at Nucleic Acid came to 71 nM.
For `Cc1ccsc1-c1cc(C(=O)Nc2cc(C(=O)Nc3cc(C(=O)NCCN4CCOCC4)n(C)c3)n(C)c2)n(C)c1`, the minimal inhibitory concentration (MIC) turned out to be 16 µg/mL (≈ 27.7 µM) with Staphylococcus aureus, 4 µg/mL (≈ 6.92 µM) in test [1] and 16 µg/mL (≈ 27.7 µM) in the test on Enterococcus faecalis [2].
With `CN(C)CCCNC(=O)c1cc(NC(=O)c2cc(NC(=O)c3cc(NC(=O)c4sccc4Cl)cn3C)cn2C)cn1C`, the MIC against Staphylococcus aureus was determined as 8 µg/mL (≈ 13 µM); in test [1], 4 µg/mL (≈ 6.52 µM); in the test on Enterococcus faecalis [2], 16 µg/mL (≈ 26.1 µM). Also, at Nucleic Acid, the Kd was 5 nM.
`Cn1cc(NC(=O)c2cc(NC(=O)c3cc(-c4ccc(F)cc4)cn3C)cn2C)cc1C(=O)NCCN1CCOCC1`: the values for the MIC (in the test with Staphylococcus aureus; in test [1]; with Enterococcus faecalis [2]) were 16 µg/mL (≈ 27.8 µM), 2 µg/mL (≈ 3.47 µM) and 8 µg/mL (≈ 13.9 µM), respectively.
In the same order, the values of `CCCCc1ccc(-c2cc(C(=O)Nc3cc(C(=O)Nc4cc(C(=O)NCCN5CCOCC5)n(C)c4)n(C)c3)n(C)c2)nc1` are 8 µg/mL (≈ 13 µM), 2 µg/mL (≈ 3.25 µM) and 32 µg/mL (≈ 52.1 µM).
Regarding `Cn1cc(NC(=O)c2cc(NC(=O)c3cc(NC(=O)c4cc5ccccc5cn4)cn3C)cn2C)cc1C(=O)NCCCN1CCOCC1`, the MIC (against Staphylococcus aureus; in test [1]; with Enterococcus faecalis [2]) was 2 µg/mL (≈ 3 µM) each time.
